Values of other authors, collected in patent publication US8197801B2, “Use of compounds for the preservation of the human or animal body and compositions comprising same” (Arkema France, priority 2006, dated 2012).

Details: general statement

Compound | Toxicity relative to methanol and formaldehyde
CCCCOCOCCCC [butylal, C4H9—(OCH2)—OC4H9] | much less toxic than methanol and formaldehyde
CCOCOCC [ethylal, C2H5—(OCH2)—OC2H5] | much less toxic than methanol and formaldehyde
COCOC [methylal, CH3—(OCH2)—OCH3] | much less toxic than methanol and formaldehyde
